In ChEMBL document CHEMBL1201862, “PubChem BioAssay data set” (2004):
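Results reflect a 48-hour exposure of cells in 96-well plates to compound at five concentrations. GI50 = concentration required for 50% inhibition of growth.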 Active and inactive are the calls of the source. No stated cut-off is given here; in the data, active = GI50 up to about 1.1 µM and inactive = higher.

Experiments:
Assay in all cases: NCI tumour cell line growth inhibition, 48 h
CCRF-CEM = system: CCRF-CEM
NCI-H23 = system: NCI-H23
SNB-75 = system: SNB-75
HOP-92 = system: HOP-92
HCC 2998 = system: HCC 2998
SF-295 = system: SF-295
SK-MEL-5 = system: SK-MEL-5
RPMI-8226 = system: RPMI-8226
SN12C = system: SN12C
OVCAR-5 = system: OVCAR-5
786-0 = system: 786-0
SR = system: SR
MCF7 = system: MCF7
OVCAR-3 = system: OVCAR-3
OVCAR-8 = system: OVCAR-8
HOP-62 = system: HOP-62
Hs-578T = system: Hs-578T
NCI/ADR-RES = system: NCI/ADR-RES
CAKI-1 = system: CAKI-1
OVCAR-4 = system: OVCAR-4
NCI-H226 = system: NCI-H226
MOLT-4 = system: MOLT-4
BT-549 = system: BT-549
ACHN = system: ACHN
HT-29 = system: HT-29
RXF 393 = system: RXF 393
SNB-19 = system: SNB-19
SK-MEL-28 = system: SK-MEL-28
SF-539 = system: SF-539
EKVX = system: EKVX
MDA-MB-435 = system: MDA-MB-435
UO-31 = system: UO-31
Malme-3M = system: Malme-3M
IGROV-1 = system: IGROV-1
HCT-15 = system: HCT-15
T47D = system: T47D
KM12 = system: KM12
M14 = system: M14
SK-MEL-2 = system: SK-MEL-2
U-251 = system: U-251
HCT-116 = system: HCT-116
NCI-H460 = system: NCI-H460
TK-10 = system: TK-10
COLO 205 = system: COLO 205
UACC-257 = system: UACC-257
SK-OV-3 = system: SK-OV-3
A549 = system: A549
UACC-62 = system: UACC-62
PC-3 = system: PC-3
MDA-N = system: MDA-N
K562 = system: K562
NCI-H522 = system: NCI-H522
SF-268 = system: SF-268
LOX IMVI = system: LOX IMVI
SW-620 = system: SW-620
A498 = system: A498
HL-60 = system: HL-60
DU-145 = system: DU-145

For `CC(=O)/N=C1\C=C(NC(C)=O)C(=O)c2ccccc21`, the GI50 (CCRF-CEM) was 2.84 µM (inactive), the GI50 (NCI-H23) was 0.451 µM (active) and the GI50 (SNB-75) was 2.54 µM (inactive). For the same compound, the GI50 (HOP-92) was 1.45 µM (inactive), the GI50 (HCC 2998) was 17.7 µM (inactive) and the GI50 (SF-295) was 3.68 µM (inactive). For the same compound, the GI50 (SK-MEL-5) was 1.64 µM (inactive), the GI50 (RPMI-8226) was 1.39 µM (inactive) and the GI50 (SN12C) was 1.78 µM (inactive). The GI50 (OVCAR-5) was 2.13 µM (inactive), the GI50 (786-0) was 1.81 µM (inactive) and the GI50 (SR) was 1.52 µM (inactive). The GI50 (MCF7) was 1.76 µM (inactive), the GI50 (OVCAR-3) was 2.01 µM (inactive) and the GI50 (OVCAR-8) was 2.21 µM (inactive). The GI50 (HOP-62) was 18.5 µM (inactive), the GI50 (Hs-578T) was 6.28 µM (inactive) and the GI50 (NCI/ADR-RES) was 2.51 µM (inactive). The GI50 (CAKI-1) was 1.95 µM (inactive), the GI50 (OVCAR-4) was 1.66 µM (inactive) and the GI50 (NCI-H226) was 7.96 µM (inactive). For the same compound, the GI50 (MOLT-4) was 1.98 µM (inactive), the GI50 (BT-549) was 2.17 µM (inactive) and the GI50 (ACHN) was 1.45 µM (inactive). The GI50 (HT-29) was 2.58 µM (inactive), the GI50 (RXF 393) was 2.21 µM (inactive) and the GI50 (SNB-19) was 3.03 µM (inactive). For the same compound, the GI50 (SK-MEL-28) was 3 µM (inactive), the GI50 (SF-539) was 2.37 µM (inactive) and the GI50 (EKVX) was 5.19 µM (inactive). For the same compound, the GI50 (MDA-MB-435) was 1.82 µM (inactive), the GI50 (UO-31) was 2.04 µM (inactive) and the GI50 (Malme-3M) was 1.93 µM (inactive). For the same compound, the GI50 (IGROV-1) was 1.71 µM (inactive), the GI50 (HCT-15) was 1.89 µM and the GI50 (T47D) was 1.48 µM (inactive). The GI50 (KM12) was 5.41 µM (inactive), the GI50 (M14) was 1.73 µM (inactive) and the GI50 (SK-MEL-2) was 3.09 µM (inactive). The GI50 (U-251) was 2.99 µM (inactive), the GI50 (HCT-116) was 1.49 µM (inactive) and the GI50 (NCI-H460) was 5.08 µM (inactive). For the same compound, the GI50 (TK-10) was 5.64 µM (inactive), the GI50 (COLO 205) was 1.94 µM (inactive) and the GI50 (UACC-257) was 1.81 µM (inactive). For the same compound, the GI50 (SK-OV-3) was 6.79 µM (inactive), the GI50 (A549) was 4.62 µM (inactive) and the GI50 (UACC-62) was 2.35 µM (inactive). For the same compound, the GI50 (PC-3) was 2.9 µM (inactive), the GI50 (MDA-N) was 1.9 µM (inactive) and the GI50 (K562) was 2.04 µM (inactive). For the same compound, the GI50 (NCI-H522) was 1.33 µM (inactive), the GI50 (SF-268) was 3.18 µM (inactive) and the GI50 (LOX IMVI) was 1.68 µM (inactive). The GI50 (SW-620) was 1.93 µM (inactive), the GI50 (A498) was 15.2 µM (inactive) and the GI50 (HL-60) was 1.85 µM (inactive).

In the case of `COc1ccc(/N=N/C(=O)NC(CC(C)C)C(=O)NC(CC(C)C)C(=O)O)cc1` (configuration not stated), the GI50 (CCRF-CEM) is reported as 42.6 µM (inactive), the GI50 (NCI-H23) is reported as > 100 µM (inactive) and the GI50 (SNB-75) is reported as > 100 µM (inactive). The GI50 (HOP-92) was > 100 µM (inactive), the GI50 (HCC 2998) was 30.9 µM (inactive) and the GI50 (SF-295) was 34.8 µM (inactive). The GI50 (SK-MEL-5) was 18.1 µM (inactive), the GI50 (RPMI-8226) was > 100 µM (inactive) and the GI50 (SN12C) was > 100 µM (inactive). For the same compound, the GI50 (OVCAR-5) was 4.02 µM (inactive), the GI50 (786-0) was > 100 µM (inactive) and the GI50 (MCF7) was > 100 µM (inactive). The GI50 (OVCAR-3) was > 100 µM (inactive), the GI50 (OVCAR-8) was > 100 µM (inactive) and the GI50 (HOP-62) was > 100 µM (inactive). The GI50 (Hs-578T) was > 100 µM (inactive), the GI50 (NCI/ADR-RES) was > 100 µM (inactive) and the GI50 (CAKI-1) was > 100 µM (inactive). For the same compound, the GI50 (OVCAR-4) was > 100 µM (inactive), the GI50 (NCI-H226) was > 100 µM (inactive) and the GI50 (MOLT-4) was 41.6 µM (inactive). The GI50 (BT-549) was > 100 µM (inactive), the GI50 (ACHN) was 12.5 µM (inactive) and the GI50 (HT-29) was > 100 µM (inactive). For the same compound, the GI50 (RXF 393) was > 100 µM (inactive), the GI50 (SNB-19) was > 100 µM (inactive) and the GI50 (SK-MEL-28) was 17.8 µM (inactive). For the same compound, the GI50 (SF-539) was 4.81 µM (inactive), the GI50 (EKVX) was > 100 µM (inactive) and the GI50 (MDA-MB-435) was 34.5 µM (inactive). For the same compound, the GI50 (UO-31) was 24.8 µM (inactive), the GI50 (Malme-3M) was 23.7 µM (inactive) and the GI50 (IGROV-1) was > 100 µM (inactive). For the same compound, the GI50 (DU-145) was 27.7 µM (inactive), the GI50 (HCT-15) was 19.5 µM and the GI50 (T47D) was 26.9 µM (inactive). The GI50 (KM12) was 43.8 µM (inactive), the GI50 (M14) was 29.9 µM (inactive) and the GI50 (U-251) was > 100 µM (inactive). For the same compound, the GI50 (HCT-116) was 86.5 µM (inactive), the GI50 (NCI-H460) was 68.9 µM (inactive) and the GI50 (TK-10) was > 100 µM (inactive). The GI50 (COLO 205) was 21.5 µM (inactive), the GI50 (UACC-257) was 7.98 µM (inactive) and the GI50 (A549) was 38.9 µM (inactive). The GI50 (UACC-62) was 16.6 µM (inactive), the GI50 (PC-3) was 18.7 µM (inactive) and the GI50 (MDA-N) was 35.3 µM (inactive). The GI50 (K562) was 8.45 µM (inactive), the GI50 (NCI-H522) was 51.9 µM (inactive) and the GI50 (SF-268) was 16.9 µM (inactive). The GI50 (LOX IMVI) was > 100 µM (inactive), the GI50 (SW-620) was 67 µM (inactive) and the GI50 (A498) was > 100 µM (inactive). For the same compound, the GI50 (HL-60) was 17.5 µM (inactive).
